18 compounds from patent US5760036A, “Aminediol protease inhibitors” (E. R. Squibb & Sons, Inc., priority 1995, dated 1998) can be followed below.

In test [1] the target is T1, HIV protease (Human immunodeficiency virus type 1 group M subtype B, UniProt P04585).
T1 construct: and purified protease
The test is described as follows: HIV Protease Assay. The class given is biochemical. Put shortly: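 At a single final concentration of 10 μM (4% DMSO), inhibitors were added to a 30-minute, 37° C reaction of purified enzyme with 450 μM H2N-Val-Ser-Gln-Asn-(β-naphthyl-alanine)-Pro-Val-Ile-OH at pH 5.5 (sodium acetate, BSA). Hydrolysis was quantified by reverse-phase HPLC with 220 nm detection after acid quench.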

Test [2] concerns RF strain of HIV (CEM-SS cells). The test is described as follows: Cell Culture Anti-HIV Activity (cell viability, formazan). The class given is cell-based. The note with it: CEM-SS cells, RF strain of HIV, multiplicity of infection 0.04, 6 days at 37° C., 450 nm, read-out: HIV (CEM Cells) IC50. Put shortly: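 Half-log compound dilutions added to CEM-SS cells (5000/well) carrying HIV RF (MOI 0.04), 6 days, 37° C. Cell protection measured as formazan from tetrazolium, A450. IC50: drug level restoring infected-cell formazan to 50% of the uninfected untreated control.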

Setting [3] is: pH 5.5, 10 μM inhibitor, 4% DMSO, 450 μM substrate, pH 5.5, 30 minutes at 37° C., RP-HPLC, read-out: HIV Protease % Inhibition at 10 μM.
The mark [4] stands for this setting: Human immunodeficiency virus 1, CEM-SS, 144 h.
The mark [5] stands for this setting: pH 5.5, read-out: HIV Protease % Inhibition at 10 μM.

Molecules are shown by their SMILES. Where two headings read alike, the source gives them in different places.

For the compound `CC(C)[C@H](NC(=O)OCc1ccccc1)C(=O)N[C@@H](Cc1ccccc1)[C@H](O)CNC[C@@H](O)[C@H](Cc1ccccc1)NC(=O)OC(C)(C)C` [Compound 52, [S-[1R*,2S*(2S*, 3R*)]-N-[3-[[3-[[(1,1-Dimethylethoxy)carbonyl]amino]-2-hydroxy-4-phenylbutyl]-amino]-2-hydroxy-1-(phenylmethyl)propyl-N^2-[(phenylmethoxy)carbonyl]-L-valinamide], the inhibition (as a rule, the drop in the measured response relative to a control, in per cent) at 10 µM in test [1] (setting [3]) stood at 100%. In addition, the IC50 (commonly the point on the concentration scale where inhibition reaches its midpoint) in test [2] (setting [4]) was found to be 200 nM.

Turning to `CC(C)(C)OC(=O)N[C@@H](Cc1ccccc1)[C@H](O)CNC[C@@H](O)[C@H](Cc1ccccc1)NC(=O)[C@@H](NC(=O)OCc1cnc2ccccc2n1)C(C)(C)C` [Compound 311, [S-[1R*,2S*(2S*,3R*)]]-[2.2-Dimethyl-1-[[[3-[[(1,1-dimethylethoxy)carbonyl]amino]-2-hydroxy-4-phenylbutyl]amino]-2-hydroxy-1-(phenylmethyl)-propyl]aminocarbonyl]propyl]carbamic acid, (2-quinoxalinyl)methyl ester], the inhibition at 10 µM in test [1] (setting [3]) stood at 100%. In test [2] (setting [4]), the concentration for half-maximal inhibition (IC50) turned out to be 50 nM.

For the compound `CC(C)[C@H](NC(=O)CCC(=O)Nc1ccccc1)C(=O)N[C@@H](Cc1ccccc1)[C@H](O)CNC[C@@H](O)[C@H](Cc1ccccc1)NC(=O)OC(C)(C)C` (relative stereo) [Compound 204, [1R*,2S*(2S*,3R*)]-N-[3-[[3-[[(1,1-Dimethylethoxy)carbonyl]amino]-2-hydroxy-4-phenylbutyl]amino]-2-hydroxy-1-(phenylmethyl)propyl]-N^2-[[1,4-dioxo-4-(phenylamino)butyl]-L-valinamide], the inhibition at 10 µM in test [1] (setting [3]) amounted to 99%. For the same compound, the IC50 in test [2] (setting [4]) came to 170 nM.

Regarding `CC(C)(C)OC(=O)N[C@@H](Cc1ccccc1)[C@H](O)CNC[C@@H](O)[C@H](Cc1ccccc1)NC(=O)C(C)(C)O` [Compound 278, [1S-[1R*,2S*(2S*,3R*)]]-[2-Hydroxy-3-[[2-hydroxy-3-[(2-hydroxy-2-methyl-1-oxoproply)amino]-4-phenylbutyl]amino]-1-(phenylmethyl)propyl]carbamic acid, 1,1-dimethylethyl ester], in test [1] (setting [5]), the inhibition at 10 µM amounted to 94%. In addition, the IC50 in test [2] (setting [4]) amounted to 840 nM.

In the case of `CC(C)(C)OC(=O)N[C@@H](Cc1ccccc1)[C@H](O)CNC[C@@H](O)[C@H](Cc1ccncc1)NC(=O)OC(C)(C)C` [Compound 30, [1S-[1R*,2S*(2S*,3R*)]]-[3-[[3-[[(1,1-Dimethylethoxy)-carbonyl]amino]-2-hydroxy-4-phenylbutyl]amino]-2-hydroxy-1-(4-pyridinylmethyl)propyl]carbamic acid, 1,1-dimethylethyl ester], in test [1] (setting [3]), the inhibition at 10 µM is 97%. Also, the IC50 in test [2] (setting [4]) stood at 500 nM.

For `CC1(C)CCCC1(O)C(=O)N[C@@H](Cc1ccccc1)[C@H](O)CNC[C@@H](O)[C@H](Cc1ccccc1)NC(=O)C1(O)CCCC1(C)C` (single isomer, unassigned; isomer b) [Compound 337], the “HIV Protease % Inhibition at 10 μM” value in test [1] (10 μM inhibitor, 4% DMSO, 450 μM substrate, pH 5.5, 30 minutes at 37° C., RP-HPLC) is listed as 99%. In addition, the IC50 in test [2] was 290 nM.

Consider `CC(C)(C)OC(=O)N[C@@H](Cc1ccccc1)[C@H](O)CNC[C@@H](O)[C@H](Cc1ccccc1)NC(=O)OC(C)(C)c1ccccc1` [Compound 156, [1S-(1R*,2S*)]-2-hydroxy-1-(phenylmethyl)-3,1-propanediyl)biscarbamic acid, 1,1-dimethylethyl-1-methyl-1-phenylethyl ester], for which, in test [1] (setting [3]), the inhibition at 10 µM worked out at 85%. Moreover, the IC50 in test [2] (setting [4]) was more than 6000 nM.

Turning to `CC1(C)CCCC1(O)C(=O)N[C@@H](Cc1ccccc1)[C@H](O)CNC[C@@H](O)[C@H](Cc1ccccc1)NC(=O)C1(O)CCCC1(C)C` (single isomer, unassigned; isomer a) [Compound 336], the inhibition at 10 µM in test [1] (setting [3]) is 100%. The IC50 in test [2] is 40 nM.

For `CC(C)(C)OC(=O)N[C@@H](Cc1ccccc1)[C@H](O)CNC[C@@H](O)[C@H](Cc1ccccc1)NC(=O)OC(C)(C)CCCO` [Compound 229, [R-(R*,S*)]-[Iminobis[2-hydroxy-1-(phenylmethyl)-3,1-propanediyl)]biscarbamic acid, 4-hydroxy-1,1-dimethyl-butyl 1,1-dimethylethyl ester], in test [1] (setting [3]), the inhibition at 10 µM worked out at 82%. Further, in test [2] (setting [4]), the half-inhibitory concentration (IC50) was determined as 600 nM.

For `CC(C)(C)OC(=O)N[C@@H](Cc1ccccc1)[C@H](O)CNC[C@@H](O)[C@H](Cc1ccccc1)NC(=O)C(O)C(C)(C)C` (stereo partly drawn) [Compound 214], in test [1] (setting [3]), the inhibition at 10 µM was 97%. In test [2] (setting [4]), the IC50 is 50 nM.

Take `CC(C)(C)OC(=O)N[C@@H](Cc1ccccc1)[C@H](O)CNC[C@@H](O)[C@H](Cc1ccccc1)NC(=O)C(NC(=O)OCc1ccccc1)C(C)(C)O` (single isomer, unassigned; isomer a) [Compound 301, [1S-[1R*,2S*(2S*,3R*)]]-[1-[[[3-[[(1,1-Dimethylethoxy)carbonyl]amino]-2-hydroxy-4-phenylbutyl]amino]-2-hydroxy-1-(phenylmethyl)propyl]amino]carbonyl]-2-hydroxy-2-methylpropyl]carbamic acid, phenylmethyl ester, isomer A]: the inhibition at 10 µM in test [1] (setting [3]) was determined as 95%. In test [2] (setting [4]), the IC50 came to 2400 nM.

`CC(C)[C@H](NC(=O)CNC(=O)OC(C)(C)C)C(=O)N[C@@H](Cc1ccccc1)[C@H](O)CNC[C@@H](O)[C@H](Cc1ccccc1)NC(=O)[C@@H](NC(=O)CNC(=O)OC(C)(C)C)C(C)C` [Compound 99, [S-(1R*,2S*)]-N,N'-[Iminobis[2-hydroxy-1-(phenylmethyl)-3,1-propanediyl]]bis [N^2-[[[1,1-dimethylethoxy)carbonyl]-amino]acetyl]-L-valinamide]]: the inhibition at 10 µM in test [1] (setting [3]) came out at 99%. For the same compound, in test [2] (setting [4]), the IC50 is more than 100000 nM.

For `CN(CC(=O)[C@H](Cc1ccccc1)NC(=O)OC(C)(C)C)C[C@@H](O)[C@H](Cc1ccccc1)NC(=O)OC(C)(C)C` [Compound 197, [1S-[1R*(2S*,3R*)]]-[3-[[3-[[(1,1-Dimethylethoxy)carbonyl]-amino]-2-hydroxy-4-phenylbutyl]-methylamino]-2-oxo-1-(phenylmethyl)propyl]carbamic acid, 1,1-dimethylethyl ester], in test [1] (setting [3]), the inhibition at 10 µM was 10%. In addition, the IC50 in test [2] (setting [4]) is more than 10000 nM.

Take `CC(C)[C@H](NC(=O)OCc1nc2ccccc2[nH]1)C(=O)N[C@@H](Cc1ccccc1)[C@H](O)CNC[C@@H](O)[C@H](Cc1ccccc1)NC(=O)OC(C)(C)C` [Compound 93, [S-[1R*,2S*(2S*,3R*)[[-N-[3-[[3-[[(1,1-Dimethylethoxy)carbonyl]amino]-2-hydroxy-4-phenylbutyl]amino]-2-hydroxy-1-(phenylmethyl)propyl]-N2 -]-(1H-benzimidazol-2-ylmethoxy)carbonyl]-L-valinamide]: in test [1] (setting [3]), the inhibition at 10 µM turned out to be 100%. For the same compound, the half-inhibitory concentration (IC50) in test [2] (setting [4]) was 180 nM.

`CC(C)(C)NC(=S)N[C@@H](Cc1ccccc1)[C@H](O)CNC[C@@H](O)[C@H](Cc1ccccc1)NC(=O)OC(C)(C)C` [Compound 137, [1S-[1R*,2S*(2S*,3R*)]]-[3-[[3-[[[(1,1-Dimethylethyl)amino]thioxomethyl]amino]-2-hydroxy-4-phenylbutyl]amino]-2-hydroxy-1-(phenylmethyl))propyl]carbamic acid, 1,1-dimethylethyl ester]: the inhibition at 10 µM in test [1] (setting [3]) stood at 92%. In test [2] (setting [4]), the IC50 is more than 2600 nM.

Take `COC(=O)N[C@H](C(=O)N[C@@H](Cc1ccc(OCC(=O)N2CCOCC2)cc1)[C@H](O)CNC[C@@H](O)[C@H](Cc1ccccc1)NC(=O)OC(C)(C)C)C(C)(C)C` (relative stereo) [Compound 341, [1R*,2S*(2S*,3R*)]-N-[3-[[3-[[(1,1-Dimethylethoxy)carbonyl]amino]-2-hydroxy-4-phenylbutyl]amino]-2-hydroxy-1-[[4-[2-(4-morpholinyl)-2-oxoethoxy]phenyl]methyl]propyl]-N^2-(2-methoxycarbonyl)-3-methyl-L-valinamide]: the inhibition at 10 µM in test [1] (setting [3]) was found to be 99%. Besides, the IC50 in test [2] (setting [4]) worked out at 2100 nM.

Take `CC(C)(C)OC(=O)N[C@@H](Cc1ccccc1)[C@H](O)CNC[C@@H](O)[C@H](Cc1ccc(OCCn2ccnc2)cc1)NC(=O)OC(C)(C)C` [Compound 290, [1S-[1R*,2S*(2S*,3R*)]]-[3-[[3-[[(1,1-Dimethylethoxy)carbonyl]amino]-2-hydroxy-4-[4-[2-(1H-imidazol-1-yl)-ethoxy]phenyl]butyl]amino]-2-hydroxy-1-(phenylmethyl)-propyl]carbamic acid, 1,1-dimethylethyl ester]: the inhibition at 10 µM in test [1] (setting [5]) was determined as 99%. Also, in test [2] (setting [4]), the IC50 amounted to 60 nM.

For `CC(C)(C)OC(=O)N[C@@H](Cc1ccccc1)[C@H](O)CNC[C@@H](O)[C@H](Cc1ccccc1)NC(=O)[C@@H](NC(=O)[C@H](Cc1ccccc1)NC=O)C(C)(C)C` (relative stereo) [Compound 285, [1R*,2S*(2S*,3R*)]-N-[3-[[(1,1-Dimethylethoxy)carbonyl]amino]-2-hydroxy-4-phenylbutyl]amino]-2-hydroxy-1-(phenylmethyl)propyl]-N^2-(N-formyl-L-phenylalanyl)-3-methyl-L-valinamide], the inhibition at 10 µM in test [1] (setting [3]) is 100%. For the same compound, the IC50 in test [2] (setting [4]) came out at 650 nM.
